Patent US4461906A, “Pyrrolidine 2-one derivatives” (Hoffmann-La Roche Inc., priority 1979, dated 1984)

Experiment: Acute toxicity, single oral administration to mice
Conditions: mouse, in vivo, p.o.
COc1ccc(C(=O)N2CCC(O)C2=O)cc1 (racemic) [A] gave an LD50 of over 5000 mg/kg.
With COc1ccc(C(=O)N2CC(O)CC2=O)cc1 (racemic) [C, (R,S)-1-(p-Methoxybenzoyl)-4-hydroxy-2-pyrrolidinone] the LD50 was 2000 to 4000 mg/kg.
COc1ccc(C(=O)N2CCCC2=O)cc1O [B, 1-(3-Hydroxy-4-methoxybenzoyl)-2-pyrrolidinone] gave an LD50 of 1250 to 2500 mg/kg.
